Measurements taken from the supplement of paper PMC10307832.

Assays:
Experiment in all cases: relative viability (nuclei count vs DMSO), 5 days (fraction); higher = more cells survive
CX-5461 + Olaparib = compound: Cc1cnc(CNC(=O)c2c(=O)c3ccc(N4CCCN(C)CC4)nc3n3c2sc2ccccc23)cn1 [CX-5461] + O=C(c1cc(Cc2n[nH]c(=O)c3ccccc23)ccc1F)N1CCN(C(=O)C2CC2)CC1 [Olaparib] (partner 8 µM)
In short: (§1)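 Values are medians from duplicate plates. Each reflects relative viability, defined as the nuclei count of treated wells over that of vehicle wells. Lung cancer cell lines in 1536-well plates were pin-tool dosed one day after seeding with one drug alone or with a fixed anchor-drug dose plus five library-drug doses (not always all listed) in √10 steps, then fixed, stained and imaged at 4× after 5 days.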

CX-5461 + Luminespib = compound: Cc1cnc(CNC(=O)c2c(=O)c3ccc(N4CCCN(C)CC4)nc3n3c2sc2ccccc23)cn1 [CX-5461] + CCNC(=O)c1noc(-c2cc(C(C)C)c(O)cc2O)c1-c1ccc(CN2CCOCC2)cc1 [Luminespib] (partner 0.01 µM)
In short: as §1

IMD-0354 + AZD7762 = compound: O=C(Nc1cc(C(F)(F)F)cc(C(F)(F)F)c1)c1cc(Cl)ccc1O [IMD-0354] + NC(=O)Nc1cc(-c2cccc(F)c2)sc1C(=O)N[C@H]1CCCNC1 [AZD7762] (partner 0.2 µM)
In short: as §1

IMD-0354 + Pictilisib = compound: O=C(Nc1cc(C(F)(F)F)cc(C(F)(F)F)c1)c1cc(Cl)ccc1O [IMD-0354] + CS(=O)(=O)N1CCN(Cc2cc3nc(-c4cccc5[nH]ncc45)nc(N4CCOCC4)c3s2)CC1 [Pictilisib] (partner 1 µM)
In short: as §1

Cell Line | relative viability (CX-5461 + Olaparib; first compound 0.01 µM) | relative viability (CX-5461 + Olaparib; first compound 0.03162 µM) | relative viability (CX-5461 + Olaparib; first compound 0.1 µM) | relative viability (CX-5461 + Olaparib; first compound 0.3162 µM) | relative viability (CX-5461 + Olaparib; first compound 1 µM) | relative viability (CX-5461 + Luminespib; first compound 0.01 µM) | relative viability (CX-5461 + Luminespib; first compound 0.03162 µM) | relative viability (CX-5461 + Luminespib; first compound 0.1 µM) | relative viability (CX-5461 + Luminespib; first compound 0.3162 µM) | relative viability (CX-5461 + Luminespib; first compound 1 µM) | relative viability (IMD-0354 + AZD7762; first compound 0.04 µM) | relative viability (IMD-0354 + AZD7762; first compound 0.1265 µM) | relative viability (IMD-0354 + AZD7762; first compound 0.4 µM) | relative viability (IMD-0354 + AZD7762; first compound 1.265 µM) | relative viability (IMD-0354 + AZD7762; first compound 4 µM) | relative viability (IMD-0354 + Pictilisib; first compound 0.04 µM) | relative viability (IMD-0354 + Pictilisib; first compound 0.1265 µM) | relative viability (IMD-0354 + Pictilisib; first compound 0.4 µM) | relative viability (IMD-0354 + Pictilisib; first compound 1.265 µM) | relative viability (IMD-0354 + Pictilisib; first compound 4 µM)
NCI-H2405 | 0.9 | 0.891 | 0.866 | 0.792 | 0.639 | 0.664 | 0.665 | 0.862 | 0.743 | 0.515 | 0.964 | 0.829 | 0.514 | 0.29 | 0.414 | 0.536 | 0.521 | 0.34 | 0.306 | 0.172
LCLC-97TM1 | 0.313 | 0.503 | 0.466 | 0.333 | 0.298 | 0.865 | 0.84 | 0.889 |  | 0.703 | 0.315 | 0.449 | 0.222 | 0.185 | 0.128 |  | 0.145 | 0.142 | 0.128 | 0.103
NCI-H596 | 0.719 | 0.715 | 0.626 | 1.13 | 0.676 | 1.07 | 0.912 | 1.17 | 1.12 | 1.12 | 0.906 | 0.959 | 0.877 | 0.519 | 0.551 | 0.383 | 0.381 | 0.375 | 0.372 | 0.34
NCI-H727 | 0.713 | 0.704 | 0.762 | 0.837 | 0.763 | 0.664 | 0.439 | 0.384 | 0.58 | 0.321 | 0.589 | 0.727 | 0.484 | 0.44 | 0.398 | 0.384 | 0.368 | 0.35 | 0.237 | 0.238
H3255 | 0.558 | 0.543 | 0.578 | 0.531 | 0.497 | 0.896 | 0.859 | 0.932 | 0.811 | 0.941 | 0.812 | 1 | 0.573 | 0.385 | 0.274 | 0.469 | 0.421 | 0.342 | 0.34 | 0.251
LK-2 | 0.664 | 0.957 | 0.918 |  | 0.497 | 0.173 | 0.214 | 0.199 |  | 0.212 | 0.251 | 0.39 |  | 0.105 | 0.172 | 0.425 | 0.504 | 0.408 | 0.381 | 0.246
NCI-H1437 | 0.654 | 0.643 | 0.528 | 0.648 | 0.567 | 1.15 | 1.2 |  | 1.08 | 0.966 | 1.12 | 1.09 | 0.755 | 0.247 | 0.297 | 0.492 | 0.381 | 0.442 | 0.153 | 0.185
LU99A | 0.27 | 0.241 | 0.297 | 0.221 | 0.284 | 0.187 | 0.218 | 0.235 | 0.241 | 0.242 | 0.246 | 0.393 | 0.332 | 0.185 | 0.151 | 0.287 | 0.304 | 0.357 | 0.152 | 0.156
